{"source": "patent US20060165671A1", "about": "“Novel nutraceutical compositions comprising epigallocatechin gallate” (priority 2002, published 2006)", "origin": "cited, not measured here", "key": {"[1]": {"system": "muscle and adipose cells in culture"}, "[2]": {"conditions": "glucose intolerant and non-insulin dependent diabetic animals"}, "[3]": {"conditions": "patients with type 2"}, "[4]": {"conditions": "after CoQ10 supplementation, several studies"}, "rat primary hepatocytes": {"system": "rat primary hepatocytes", "conditions": "concentrations from about 10 to about 100 μM"}, "pre-adipocyte cells": {"system": "pre-adipocyte cells", "conditions": "compared to the specific PPAR-γ agonist ciglitazone"}}}
{"compound": "1,2-dithiolane-3-pentaenoic acid [Lipoic acid]", "values": [{"measurement": "glucose transport", "setting": "[1]", "result": "stimulates glucose transport"}, {"measurement": "basal and insulin-stimulated glucose uptake by skeletal muscles", "setting": "[2]", "result": "raised"}, {"measurement": "glucose disposal", "setting": "[3]", "result": "improves glucose disposal"}]}
{"compound": "COC1=C(OC)C(=O)C(C/C=C(\\C)CC/C=C(\\C)CC/C=C(\\C)CC/C=C(\\C)CC/C=C(\\C)CC/C=C(\\C)CC/C=C(\\C)CC/C=C(\\C)CC/C=C(\\C)CCC=C(C)C)=C(C)C1=O", "note": "[CoQ10, 6-Decaprenyl-2,3-dimethoxy-5-methyl-1,4-benzoquinone]", "values": [{"measurement": "LDL oxidation", "setting": "[4]", "result": "reduced"}]}
{"compound": "CC(C)CCCC(C)CCCC(C)CCCC(C)CC(=O)O", "note": "(stereo not drawn) [Phytanic acid, 3,7,11,15-tetramethylhexadecanoic acid]", "values": [{"measurement": "uptake of glucose", "setting": "rat primary hepatocytes", "result": "enhances uptake of glucose"}, {"measurement": "differentiation of pre-adipocyte cells into mature adipocytes", "setting": "pre-adipocyte cells", "result": "only minor effects"}]}
